A word on the IC50: it is the point on the concentration scale where inhibition reaches its midpoint.

Each structure is given as a SMILES string.

Here are results for 17 molecules from ChEMBL document CHEMBL1131272, “Aromatic analogs of arcaine inhibit MK-801 binding to the NMDA receptor” (Bioorg Med Chem Lett, 1998).

The target of experiment [1] is Glutamate [NMDA] receptor. The experiment can be described thus: Ability to inhibit MK-801 binding to NMDA receptor in the presence of 100 uM of spermidine was determined. The experiment is classed as protein-complex assay.
For experiment [2], the target named is Glutamate [NMDA] receptor. The experiment can be described thus: Ability to inhibit MK-801 binding to the NMDA receptor was determined. It counts as protein-complex assay.

With `CCCN(Cc1cccc(CN(CCC)C(=N)N)c1)C(=N)N`, the IC50 in experiment [1] was 12.2 µM; in experiment [2] it was 0.58 µM.
In the case of `C=CCN(Cc1cccc(CN(CC=C)C(=N)N)c1)C(=N)N`, the IC50 in experiment [1] worked out at 29.8 µM; in experiment [2], 3.85 µM.
On to `N=C(N)NCc1cccc(CNC(=N)N)c1`, for which the IC50 in experiment [1] is 7.09 µM; in experiment [2] it was 1.19 µM.
Turning to `CCCN(Cc1cccc(CN(CCC)C(=N)N)n1)C(=N)N`, the IC50 was found to be 95.2 µM in experiment [1] and 8.62 µM in experiment [2].
`CCCN(Cc1cc(CN(CCC)C(=N)N)cc(OC)c1)C(=N)N`: the IC50 in experiment [1] was 55.3 µM; in experiment [2], 20.6 µM.
Turning to `N=C(N)N(Cc1ccccc1)Cc1cccc(CN(Cc2ccccc2)C(=N)N)c1`, the values for the IC50 in experiment [1] and in experiment [2] were 2.23 µM and 3.82 µM, respectively.
As for `CCCN(Cc1cc(O)cc(CN(CCC)C(=N)N)c1)C(=N)N`, the IC50 was 111 µM in experiment [1] and 10.6 µM in experiment [2].
In the case of `N=C(N)NCc1cc(CNC(=N)N)cc(NC(=O)c2ccccc2)c1`, the IC50 in experiment [1] worked out at 20.6 µM; in experiment [2], 4.34 µM.
Taken in the same sequence, the figures for `COc1cc(CNC(=N)N)cc(CNC(=N)N)c1` were 5.89 µM and 1.3 µM.
`CCCCN(Cc1cccc(CN(CCCC)C(=N)N)c1)C(=N)N`: the IC50 was 9.27 µM in experiment [1] and 2.8 µM in experiment [2].
On to `CC(C)CN(Cc1cccc(CN(CC(C)C)C(=N)N)c1)C(=N)N`, for which the IC50 in experiment [1] stood at 112 µM; in experiment [2] it was 10.8 µM.
Regarding `N=C(N)NCc1cccc(CNC(=N)N)n1`, the IC50 came to 49.3 µM in experiment [1] and 4.02 µM in experiment [2].
On the same counts, the results for `NC(N)=NCCCCN=C(N)N` [ARCAINE] are 80 µM and 9.13 µM.
Take `N=C(N)NCc1cc(CNC(=N)N)cc(-c2ccccc2)c1`: the IC50 in experiment [1] was 15.7 µM; in experiment [2], 5.14 µM.
As to `CCN(Cc1cccc(CN(CC)C(=N)N)c1)C(=N)N`, the IC50 in experiment [1] amounted to 75.8 µM; in experiment [2], 5.1 µM.
`CC(C)Oc1cc(CNC(=N)N)cc(CNC(=N)N)c1`: the IC50 amounted to 10.5 µM in experiment [1] and 2.43 µM in experiment [2].
`N=C(N)NCc1cc(CNC(=N)N)cc(OC2CCCCC2)c1`: the concentration for half-maximal inhibition (IC50) was found to be 9.88 µM in experiment [1] and 9.07 µM in experiment [2].
